ChEMBL document CHEMBL1681668, “Discovery of INCB10820/PF-4178903, a potent, selective, and orally bioavailable dual CCR2 and CCR5 antagonist” (Bioorg Med Chem Lett, 2011)

What was measured:
[1] = target: C-C chemokine receptor type 5 (Homo sapiens, UniProt P51681); experiment: Displacement of labeled MIP-1beta from human CCR5 receptor
[2] = Oral bioavailability in rat at 10 mg/kg; assay type: ADME, organism-based; conditions: in vivo
[3] = Volume of distribution at steady state in rat at 5 mg/kg, iv and 10 mg/kg, po; assay type: ADME, organism-based; conditions: in vivo, read-out: Vdss
[4] = Half life in human liver microsomes; assay type: ADME, Microsome
[5] = Clearance in cynomolgus monkey at […], iv and 10 mg/kg, po; assay type: ADME, organism-based, Macaca fascicularis; conditions: in vivo
[6] = AUC in rat at 10 mg/kg, po; assay type: ADME, organism-based; design: dose 10 mg/kg, route oral; conditions: plasma
[7] = Half life in rat at 5 mg/kg, iv; assay type: ADME, organism-based; design: dose 5 mg/kg, route intravenous; conditions: in vivo
[8] = Clearance in rat at 5 mg/kg, iv and 10 mg/kg, po; assay type: ADME, organism-based; conditions: in vivo
[9] = Oral bioavailability in cynomolgus monkey at 10 mg/kg; assay type: ADME, organism-based, Macaca fascicularis; conditions: in vivo
[10] = AUC in cynomolgus monkey at 10 mg/kg, po; assay type: ADME, organism-based, Macaca fascicularis; design: dose 10 mg/kg, route oral; conditions: plasma
[11] = Volume of distribution at steady state in cynomolgus monkey at […], iv and 10 mg/kg, po; assay type: ADME, organism-based, Macaca fascicularis; conditions: in vivo, read-out: Vdss
[12] = Half life in cynomolgus monkey at […], iv; assay type: ADME, organism-based, Macaca fascicularis; design: dose 2.5 mg/kg, route intravenous; conditions: in vivo
[13] = target: C-C chemokine receptor type 2 (Homo sapiens) (UniProt P41597); experiment: Displacement of [125I]MCP1 from human CCR2 at 1000 nM after 30 mins by gamma counting
Sequence of C-C chemokine receptor type 2 (Homo sapiens) (P41597 whole entry, looked up): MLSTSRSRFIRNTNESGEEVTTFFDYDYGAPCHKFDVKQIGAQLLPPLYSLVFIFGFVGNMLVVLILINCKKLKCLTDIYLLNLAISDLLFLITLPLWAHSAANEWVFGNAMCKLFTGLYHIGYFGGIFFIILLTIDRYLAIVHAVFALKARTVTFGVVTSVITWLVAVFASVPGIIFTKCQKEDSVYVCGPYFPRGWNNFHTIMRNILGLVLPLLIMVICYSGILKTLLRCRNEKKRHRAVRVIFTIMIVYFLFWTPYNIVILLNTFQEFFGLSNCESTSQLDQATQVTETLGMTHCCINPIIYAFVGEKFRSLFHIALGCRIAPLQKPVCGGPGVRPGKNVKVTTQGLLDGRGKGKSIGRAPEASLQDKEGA

Sequence of C-C chemokine receptor type 5 (P51681 whole entry): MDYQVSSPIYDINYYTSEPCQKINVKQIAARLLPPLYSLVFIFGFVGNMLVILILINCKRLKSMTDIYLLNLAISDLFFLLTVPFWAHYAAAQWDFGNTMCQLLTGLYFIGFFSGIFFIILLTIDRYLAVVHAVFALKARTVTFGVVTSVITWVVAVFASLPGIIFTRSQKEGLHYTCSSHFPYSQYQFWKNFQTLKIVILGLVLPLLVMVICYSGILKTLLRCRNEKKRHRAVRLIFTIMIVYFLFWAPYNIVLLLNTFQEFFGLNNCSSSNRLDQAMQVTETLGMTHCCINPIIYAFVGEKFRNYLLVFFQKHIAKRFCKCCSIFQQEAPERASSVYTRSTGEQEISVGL

IC50 [1] | SMILES | further results
18 nM | CC[C@@H]1COCC[C@@H]1N[C@@H]1CC[C@@](C(=O)N2CCN(c3cccc(C(F)(F)F)c3)CC2)(C(C)C)C1 | 
312 nM | CC[C@H]1COCC[C@H]1N[C@@H]1CC[C@@](C(=O)N2CCN(c3cccc(C(F)(F)F)c3)CC2)(C(C)C)C1 | 
 | CO[C@@H]1COCC[C@@H]1N[C@@H]1CC[C@@](C(=O)N2CCN(c3cc(C(F)(F)F)ccn3)CC2)(C(C)C)C1 | bioavailability [2]: 84%; Vd [3]: 17 L/kg; half-life [4]: 93 min; clearance [5]: 36.7 mL/min/kg; AUC [6]: 3 µM·h; half-life [7]: 300 min; clearance [8]: 63.3 mL/min/kg; bioavailability [9]: 57%; AUC [10]: 5.3 µM·h; Vd [11]: 6.2 L/kg; half-life [12]: 180 min
22.5 nM | CCO[C@@H]1COCC[C@@H]1N[C@@H]1CC[C@@](C(=O)N2CCN(c3cccc(C(F)(F)F)c3)CC2)(C(C)C)C1 | 
1000 nM | CC[C@@H]1COCC[C@H]1N[C@@H]1CC[C@@](C(=O)N2CCN(c3cccc(C(F)(F)F)c3)CC2)(C(C)C)C1 | 
201 nM | COC[C@@H]1COCC[C@@H]1N[C@@H]1CC[C@@](C(=O)N2CCN(c3cccc(C(F)(F)F)c3)CC2)(C(C)C)C1 | 
23 nM | CO[C@@H]1COCC[C@@H]1N[C@@H]1CC[C@@](C(=O)N2CCN(c3cccc(C(F)(F)F)c3)CC2)(C(C)C)C1 | 
546 nM | CC[C@H]1COCC[C@@H]1N[C@@H]1CC[C@@](C(=O)N2CCN(c3cccc(C(F)(F)F)c3)CC2)(C(C)C)C1 | 
26.5 nM | CO[C@@H]1COCC[C@@H]1N[C@@H]1CC[C@@](C(=O)N2CCN(c3cccc(C(F)(F)F)n3)CC2)(C(C)C)C1 | 
204 nM | CO[C@H]1COCC[C@H]1N[C@@H]1CC[C@@](C(=O)N2CCN(c3cccc(C(F)(F)F)c3)CC2)(C(C)C)C1 | 
 | CC(C)[C@]1(C(=O)N2CCN(c3ccc(C(F)(F)F)cc3)CC2)CC[C@@H](NC2CCOCC2)C1 | inhibition [13]: 40%
 | CC(C)[C@]1(C(=O)N2CCC(c3ccccc3)CC2)CC[C@@H](NC2CCOCC2)C1 | inhibition [13]: 0%
572 nM | COC[C@H]1COCC[C@H]1N[C@@H]1CC[C@@](C(=O)N2CCN(c3cccc(C(F)(F)F)c3)CC2)(C(C)C)C1 | 
> 1000 nM | CC(C)[C@]1(C(=O)N2CCN(c3cccc(C(F)(F)F)c3)CC2)CC[C@@H](N[C@@H]2CCOC[C@H]2C)C1 | 
206 nM | CCO[C@H]1COCC[C@H]1N[C@@H]1CC[C@@](C(=O)N2CCN(c3cccc(C(F)(F)F)c3)CC2)(C(C)C)C1 | 
 | CC(C)[C@]1(C(=O)N2CCN(c3ccccc3C(F)(F)F)CC2)CC[C@@H](NC2CCOCC2)C1 | inhibition [13]: 19%
283 nM | CC(C)[C@]1(C(=O)N2CCN(c3cccc(C(F)(F)F)c3)CC2)CC[C@@H](NC2CCOCC2)C1 | 
370 nM | CC(C)[C@]1(C(=O)N2CCN(c3cccc(C(F)(F)F)c3)CC2)CC[C@@H](N[C@H]2CCOC[C@@H]2C)C1 | 
8.4 nM | CO[C@@H]1COCC[C@@H]1N[C@@H]1CC[C@](CC(F)(F)F)(C(=O)N2CCN(c3cc(C(F)(F)F)ccn3)CC2)C1 | 
77 nM | CC(C)[C@]1(C(=O)N2CCN(c3cccc(C(F)(F)F)c3)CC2)CC[C@@H](N[C@H]2CCOC[C@H]2C)C1 | 
108 nM | CC(C)[C@]1(C(=O)N2CCN(c3cccc(C(F)(F)F)c3)CC2)CC[C@@H](N[C@@H]2CCOC[C@@H]2C)C1 | 
